Source: publication PMC9500755, “Albumin-Mediated Size Exclusion Chromatography: The Apparent Molecular Weight of PSMA Radioligands as Novel Parameter to Estimate Their Blood Clearance Kinetics” (Pharmaceuticals, 2022)

Legend:
[1] = target: T1, human serum albumin (HSA) (Homo sapiens, UniProt P02768); test: Albumin-mediated size exclusion chromatography (AMSEC); type: in vitro ADME; settings: for tR,AMSEC (retention time in AMSEC run): 177Lu-labeled ligand, mobile phase 700 µM HSA in PBS pH 7.4, Superdex 75 Increase, corrected for detector offset, normalized to column 1; for Retention factor k: fraction of time the radioligand is complexed to HSA during the AMSEC run, Equation (2); for MWapp,raw (raw apparent molecular weight): from tR,AMSEC by column calibration, 700 µM HSA in PBS pH 7.4; for MWapp,norm. (normalized apparent molecular weight): from tR,norm. by column calibration; for tR,norm. (normalized retention time): normalized with tR,blank, tR,HSA and tR,acetone, Equation (5)
T1 construct: purchased Biowest, Nuaillé, France
T1 sequence (P02768 25-609): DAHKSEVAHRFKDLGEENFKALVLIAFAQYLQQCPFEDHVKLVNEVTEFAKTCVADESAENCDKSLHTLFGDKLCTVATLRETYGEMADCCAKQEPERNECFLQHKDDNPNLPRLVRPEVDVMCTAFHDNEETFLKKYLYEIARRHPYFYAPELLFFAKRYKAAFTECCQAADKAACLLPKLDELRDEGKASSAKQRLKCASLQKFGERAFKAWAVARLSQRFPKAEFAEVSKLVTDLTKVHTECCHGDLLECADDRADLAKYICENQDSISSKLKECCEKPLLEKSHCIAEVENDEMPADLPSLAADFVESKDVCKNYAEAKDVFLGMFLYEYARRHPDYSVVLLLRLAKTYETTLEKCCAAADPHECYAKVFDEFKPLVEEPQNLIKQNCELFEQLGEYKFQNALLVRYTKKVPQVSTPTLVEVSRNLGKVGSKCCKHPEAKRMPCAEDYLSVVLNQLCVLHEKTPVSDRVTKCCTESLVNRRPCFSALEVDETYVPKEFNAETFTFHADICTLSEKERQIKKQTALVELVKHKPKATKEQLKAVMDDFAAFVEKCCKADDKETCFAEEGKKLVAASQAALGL
Procedure: All size exclusion chromatographic (SEC) experiments were carried out using the above-mentioned HPLC system equipped with a Superdex 75 Increase 10/300 GL gel filtration size exclusion column (fractionation range 70–3 kDa, GE Healthcare, Uppsala, Sweden). Eluents at room temperature, a constant flow rate of 0.8 mL/min, and an acquisition time of 35 min were generally applied. The column was calibrated as recommended by the manufacturer using a commercially available set of proteins (Gel Filtration LMW Calibration Kit, GE Healthcare, Buckinghamshire, UK). Retention times of calibration proteins and calculated calibration parameters are given in the Supplementary Materials (Table S3). UV signal detection occurred at 280 nm.
All retention times of radio signals were corrected for the offset between the UV-vis detector and radio-detector (Δt = 0.084 min). Throughout the development of the AMSEC method, three gel filtration columns of the same type were used for experiments (most data were acquired using column 1). As calculations were based on absolute empirical retention times that inherently differed slightly from column to column, all retention times determined on column 2 and column 3 were mathematically converted to an equivalent retention time on column 1 using the columns’ calibration parameters. A detailed description of these calculations is provided in the Supplementary Materials.
All numerical retention times explicitly given in running text or tables and plotted in diagrams are already corrected for the offset between UV-vis and radio-detector and, if initially determined on columns 2 or 3, converted to the equivalent retention time on column 1 (for detailed information, see Equations (S1) and (S2) and Table S1 in the Supplementary Materials).
AMSEC runs were executed with a solution of HSA (Biowest, Nuaillé, France) in PBS (pH 7.4) at physiological concentration (700 µM) as a mobile phase. Upon injection of approximately 1.0 MBq (5–10 µL) of a radioligand, the elution profile was monitored via radioactivity detection, and the retention times of observed radiopeaks (tR,AMSEC) were determined via semi-automated peak integration. By means of calibration, retention times were translated into a ligand-specific raw apparent molecular weight (MWapp,raw) as a parameter to assess the extent of HSA binding (for calculation, see Equation (S6) in the Supplementary Materials). rhPSMA-7.3 served as an internal standard during AMSEC studies and was co-evaluated whenever new data were collected to assess the reproducibility of the method (n = 14).
For reference purposes, conventional SEC runs of HSA (100 µL, 3 mg/mL) and acetone (100 µL, 2% in PBS pH 7.4) with PBS (pH 7.4) as a mobile phase were executed. The retention time of HSA (tR,HSA) corresponded to the maximal MWapp,raw, theoretically observable in AMSEC runs in the case of continuous binding of a radioligand to HSA (equivalent to 100% HSA binding). The retention time of acetone (tR,acetone) served as a reference for a ligand with no interaction with HSA in AMSEC runs (equivalent to 0% HSA binding) and an actual physical molecular weight below the column fractionation range (this was the case for all investigated radioligands).
MWapp,raw values determined as described in Section 3.3.1. were normalized in order to account for ligand-specific influences on experimentally determined retention times and to establish quantitative comparability of the obtained MWapp,norm. values. The normalization was based on a SEC run (referred to as blank run) of a radioligand executed in analogy to the AMSEC run but using PBS (pH 7.4) without HSA as a mobile phase. The determined retention time tR,blank, together with the retention time tR,AMSEC from the AMSEC run, tR,HSA, and tR,acetone determined in Section 3.3.1, were used to calculate a normalized retention time tR,norm. for every radioligand (for formulae and details on the calculation, see Section 2. Results and Discussion). […]

[2] = Calculated glomerular sieving coefficients (GSCcalc) from MWapp,norm.; settings: from MWapp,norm. via sigmoidal fit of MW vs GSC of 12 human plasma proteins
Text: Therefore, when comparing the MWapp,norm. of different radioligands, not only their relative difference but also the absolute values of MWapp,norm. are of importance. […] These GSCcalc determined for all the PSMA radioligands (Table 2, Figure 5) inherently account for the exponential nature of the relationship between their albumin-mediated MWapp,norm. and MW-dependent GF and could, therefore, be a useful parameter to estimate differences in blood clearance by means of GF. The GSC is defined as the ratio of a compound’s concentration in the glomerular filtrate to that in the blood; thus, a GSC of 1 represents unhindered filtration through the capillary membrane in the glomerulus, while a lower GSC corresponds to a restricted filtration and, thus, a prolonged circulatory half-life. […] As an example, a GSCcalc of 0.408 was determined for rhPSMA-7.3, while an almost three-fold smaller GSCcalc of 0.138 was determined for rhPSMA-7.4. […] This would constitute a dramatic physiological effect that, in its extent, could not be predicted only based on subtle differences in molecular structure and other conventionally determined in vitro parameters. We, therefore, believe that the MWapp,norm. and GSCcalc obtained by AMSEC could be important parameters that, already at the preclinical stage of development, could help in the selection of promising therapeutic radioligands with pharmacokinetic profiles suitable for patient application.
A sigmoidal fit of molecular weights (MWs, in kDa) and corresponding glomerular sieving coefficients (GSCs) of 12 human plasma proteins (data taken from Norden et al.) was executed using OriginPro software. A dose-response model based on Equation (6) was applied:(6) GSC=A1+A2−A1/1+10^(LOGx0−MW)·p.
The values of bottom asymptote A1 and top asymptote A2 were set to 4.2∙10^−5 (GSC of IgG, data taken from Norden et al.) and 1 (equaling complete sieving), respectively. Curve fitting gave the center parameter LOGx0 = 19.36833 and the Hill slope p = −0.12108. GSCcalc values were calculated via implementation of fitting parameters and the experimentally determined MWapp,norm. in Equation (6).

[3] = parameters: method as in PMID 26985056; settings: 177Lu-labeled; cited from earlier work
[4] = parameters: method as in PMID 30105912, PMID 29684274; settings: 177Lu-labeled, mice; cited from earlier work
[5] = parameters: method as in PMID 35086894; settings: head-to-head with four isomers of rhPSMA-7 and rhPSMA-10.2; cited from earlier work

Structure (SMILES)	tR,AMSEC (retention time in AMSEC run) [1] [min]	Retention factor k [1]	MWapp,raw (raw apparent molecular weight) [1] [kDa]	MWapp,norm. (normalized apparent molecular weight) [1] [kDa]	tR,norm. (normalized retention time) [1] [min]	GSCcalc (calculated glomerular sieving coefficient) [2]	blood clearance [3]	therapeutic efficacy compared to PSMA-617 [4]	MWapp,norm. higher than that of the stereoisomer ([1]; rhPSMA-7.2 vs rhPSMA-7.1, rhPSMA-10.1 vs rhPSMA-10.2) [%]	blood clearance in mice [5]
O=C(O)CC[C@H](NC(=O)N[C@@H](CCCCNC(=O)[C@H](Cc1ccc2ccccc2c1)NC(=O)[C@H]1CC[C@H](CNC(=O)CN2CCN(CC(=O)O)CCN(CC(=O)O)CCN(CC(=O)O)CC2)CC1)C(=O)O)C(=O)O (177Lu complex, metal not drawn) [PSMA-617, reference compound]	17.586	0.447	13.8	9.4	18.988	0.942	rapid, bi-phasic blood clearance			
Cc1ccc(CCCC(=O)NCCCC[C@H](NC(=O)CN2CCN(CC(=O)O)CCN(CC(=O)O)CCN(CC(=O)O)CC2)C(=O)NCC2CCC(C(=O)N[C@@H](Cc3ccc4ccccc4c3)C(=O)NCCCC[C@H](NC(=O)N[C@@H](CCC(=O)O)C(=O)O)C(=O)O)CC2)cc1 (stereo partly shown) (177Lu complex, metal not drawn) [PSMA-ALB-56]								superior therapeutic efficacy		
CC(C)(C)[Si](F)(c1ccc(C(=O)NC[C@@H](NC(=O)CN2CCN(CC(=O)[O-])CCN(CC(=O)[O-])CCN(CC(=O)[O-])CC2)C(=O)N[C@H](CCCCNC(=O)CCC(=O)NCCC[C@@H](NC(=O)CC[C@H](NC(=O)N[C@@H](CCC(=O)O)C(=O)O)C(=O)O)C(=O)O)C(=O)O)cc1)C(C)(C)C.[177Lu+3] [rhPSMA-10.1]	15.410	0.616	25.3	17.2	16.789	0.644			30	fast blood clearance
